# Source: PMC6271231 (Molecules, 2014)
# Entries after “also recorded” stand apart in the source; their conditions may differ.
# Biological target: NA of A/PR/8/34 (H1N1) (Influenza A virus, UniProt P03468)
# Experiment: biochemical
# Assay type: biochemical, influenza A virus A/PR/8/34 (H1N1)
# Sequence of NA of A/PR/8/34 (H1N1) (P03468 whole entry): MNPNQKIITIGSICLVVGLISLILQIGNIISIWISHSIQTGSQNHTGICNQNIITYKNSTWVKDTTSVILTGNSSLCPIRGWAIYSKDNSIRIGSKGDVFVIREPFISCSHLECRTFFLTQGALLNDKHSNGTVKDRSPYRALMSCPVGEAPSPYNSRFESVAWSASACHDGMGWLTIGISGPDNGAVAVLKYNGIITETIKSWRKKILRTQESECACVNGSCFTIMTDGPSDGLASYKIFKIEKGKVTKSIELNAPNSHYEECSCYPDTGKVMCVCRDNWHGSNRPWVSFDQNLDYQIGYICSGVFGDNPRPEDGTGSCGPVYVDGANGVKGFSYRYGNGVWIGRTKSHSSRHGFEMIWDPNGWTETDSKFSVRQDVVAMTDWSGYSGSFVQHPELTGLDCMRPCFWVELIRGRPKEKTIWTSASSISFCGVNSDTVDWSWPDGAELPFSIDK
SMILES,IC50 [µM],inhibitory effect against influenza H1N1 virus neuraminidase (in words)
"O=C(Oc1cc(O)c2c(c1)OC(c1cc(O)c(O)c(O)c1)C(O)C2)c1cc(O)c(O)c(O)c1 (single isomer, unassigned; (+)) [Compound 3, (+)-3,5,3',4',5'-penta-hydroxyflavan-7-gallate]",> 87.3,
"CC1(C)O[C@@H]2Cc3c(O)cc(OC(=O)c4cc(O)c(O)c(O)c4)cc3O[C@@H]2c2cc(O)c(O)c(O)c21 [Compound 1, (2R,3R)-7-O-galloylplumbocatechin A]",59.7,higher inhibitory activities on NA from influenza H1N1 virus than on those from influenza H3N2 and B viruses; also recorded: moderate inhibitory effects; also recorded: best results
"O=C(Oc1cc(O)c2c(c1)O[C@H](c1cc(O)c(O)c(O)c1)CC2)c1cc(O)c(O)c(O)c1 [Compound 2, (−)-5,3',4',5'-tetrahydroxyflavan-7-gallate]",83.4,higher inhibitory activities on NA from influenza H1N1 virus than on those from influenza H3N2 and B viruses; also recorded: moderate inhibitory effects
"O=C(Oc1cc(O)c2c(c1)O[C@H](c1cc(O)c(OC(=O)c3cc(O)c(O)c(O)c3)c(O)c1)CC2)c1cc(O)c(O)c(O)c1 [Compound 4, (−)-7,4'-di-O-galloyltricetiflavan]",> 67.3,
